The target in test [1] is human DPP1 enzyme (Homo sapiens (Human), UniProt P53634). The test is described as follows: Human DPP1 enzyme single-point percent inhibition testing (HL-60 lysate, H-Gly-Arg-AMC substrate). Type of test: biochemical. Conditions: read-out: human DPP1 enzyme % inhibition @ 10 nM, 10 nM compound, 400 μM H-Gly-Arg-AMC, 10 min pre-incubation at 37° C. The protocol: A crude lysate of HL-60 cells (ATCC; Manassas, VA) was used as a source of human DPP1 enzyme in the assay. Lysate was prepared in 1% Triton X-100 in PBS at a concentration of 20,000 live cells per […] of lysis buffer and was centrifuged at 16,000 rcf for 10 minutes at 4° C., after which supernatant was collected and flash-frozen in liquid nitrogen. Test articles were applied to human DPP1 enzyme in Assay Buffer (25 mM MES pH 6.0, 50 mM NaCl, 5 mM DTT) in a total reaction volume of 125 μL. 25 μL of compound diluted to 50 nM in Assay Buffer plus 5% DMSO was first added to 50 μL of HL-60 lysate diluted to contain a DPP1 enzyme concentration of roughly 1 ng/μL and allowed to pre-incubate for 10 minutes at 37° C. after which 50 μL of 1000 μM H-Gly-Arg-AMC substrate (Bachem; St. Torrance, CA) was added, giving final compound concentration of 10 nM, a final substrate concentration of 400 μM and a final DMSO concentration of 1%. Substrate cleavage was measured for 90 minutes at 37° C., with fluorescence at Excitation/Emission 350/450 nm measured every 5 minutes. DPP1 concentration was interpolated based on its activity relative to a standard curve of activated human recombinant DPP1 enzyme. Percent inhibition at 10 nM was calculated for each test article based on remaining DPP1 activity compared to enzyme activity in wells that received only vehicle control.
human DPP1 enzyme, sequence (P53634 25-134): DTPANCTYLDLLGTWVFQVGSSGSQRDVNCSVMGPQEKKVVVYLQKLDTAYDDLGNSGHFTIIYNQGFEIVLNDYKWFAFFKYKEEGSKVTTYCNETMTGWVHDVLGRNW
human DPP1 enzyme, sequence (P53634 231-394): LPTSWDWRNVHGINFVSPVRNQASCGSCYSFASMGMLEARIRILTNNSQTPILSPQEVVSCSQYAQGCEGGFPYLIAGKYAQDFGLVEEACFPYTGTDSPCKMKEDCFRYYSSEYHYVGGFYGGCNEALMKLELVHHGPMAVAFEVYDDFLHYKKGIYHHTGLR
human DPP1 enzyme, sequence (P53634 395-463): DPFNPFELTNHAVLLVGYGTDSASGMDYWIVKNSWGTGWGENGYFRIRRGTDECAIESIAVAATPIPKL

The target of test [2] is DPP1 in HL-60 cells (Homo sapiens (Human), UniProt P53634). Briefly: DPP1 cell single-point percent inhibition testing (HL-60 cells, H-Gly-Phe-AFC substrate). Type of test: cell-based. Conditions: read-out: DPP1 cell % inhibition @ 5 nM, 5 nM compound, 100 μM H-Gly-Phe-AFC, 60 min pre-incubation at 37° C. The protocol: HL-60 cells (ATCC; Manassas, VA) were maintained in RPMI-1640 supplemented with 20% heat-inactivated FBS and 1× Antibiotic Antimycotic (Cytiva; Marlborough, MA). Media was changed every three to four days and cells were not allowed to exceed 1×10^6 cells per mL. Prior to assay, cells were collected by centrifugation at 500 rcf for 3 minutes, resuspended in RPMI (with no additional supplements) and counted. Cells were diluted in RPMI to a concentration of 5×10^5 live cells per mL and transferred to black 96-well plates for assay, 60 μL per well. Test articles were diluted to 25 nM in RPMI plus 0.5% DMSO, and 20 μL was added to each assay well. Compound was allowed to pre-incubate with cells with gentle shaking at 100 rpm for 60 minutes at 37° C. in a cell culture incubator maintained at 5% CO2, after which 20 μL of 500 μM H-Gly-Phe-AFC cell-permeable substrate (MP Biomedicals; Solon, OH) in RPMI was added to each well, giving final compound concentration of 5 nM, a final substrate concentration of 100 μM and a final DMSO concentration of 0.1%. Plates were returned to the incubator with shaking at 100 rpm for 30 minutes, after which fluorescence was measured at Excitation/Emission 400/505 nm. Percent Inhibition was calculated from RFU values by first subtracting background values (wells in which RPMI was substituted for cells) from each well, and then subtracting background-subtracted RFU derived from wells that received a final concentration of 10 μM brensocatib. This value represents the non-specific substrate cleavage from the HL-60 cells, and the remaining RFU should theoretically be solely the contribution of DPP1 enzyme activity. The final percent inhibition value was calculated for each test article based on remaining RFU compared to RFU from wells that received only vehicle control.
DPP1 in HL-60 cells, sequence (P53634 25-134): as the sequence (P53634 25-134) above
DPP1 in HL-60 cells, sequence (P53634 231-394): as the sequence (P53634 231-394) above
DPP1 in HL-60 cells, sequence (P53634 395-463): as the sequence (P53634 395-463) above

The structures appear in SMILES notation.

Experimental findings from US20260008758A1, “LINEAR DIPEPTIDYL PEPTIDASE 1 INHIBITORS AND USES THEREOF” (Insmed Incorporated, priority 2024, published 2026) are described below.

With `CN(C)C[C@H](O)C(=O)N[C@H](C#N)Cc1ccc(-c2ccc3c(c2)C2(CC3)CCN(C)CC2)cc1F` [Compound 355], in test [1], the inhibition – broadly, how much of the control response was suppressed – at 0.01 µM is not below 66.7%. For the same compound, the inhibition at 0.005 µM in test [2] is not above 76.5%.
The like results for `CN(C)C[C@H](O)C(=O)N[C@H](C#N)Cc1ccc(-c2ccc3c(c2)C2(CCCN(C)C2)C(=O)N3C)cc1F` (stereo partly drawn) [Compound 356] were, in that order, 40 to 66.7% and 76.5 to 93.9%.
Regarding `CN(C)CCn1c(=O)oc2ccc(-c3ccc(C[C@@H](C#N)NC(=O)[C@@H](O)CN(C)C)c(F)c3)cc21` [Compound 357], the inhibition at 0.01 µM in test [1] is not below 66.7%. Also, the inhibition at 0.005 µM in test [2] is not above 76.5%.
`Cc1cn2cc(-c3ccc(C[C@@H](C#N)NC(=O)[C@@H](O)CN(C)C)c(F)c3)cc2c(C)n1` [Compound 358]: the inhibition at 0.01 µM in test [1] was not above 40%. For the same compound, the inhibition at 0.005 µM in test [2] is not above 76.5%.
The like results for `CN(C)C[C@H](O)C(=O)N[C@H](C#N)Cc1ccc(-c2ccc3c(c2)C2(CN(C)C2)OC3=O)cc1F` [Compound 359] were, in that order, 40 to 66.7% and not above 76.5%.
For `CCN1C(=O)Cc2ccc(-c3ccc(C[C@@H](C#N)NC(=O)[C@@H](O)CN(C)C)c(F)c3)cc21` [Compound 360] the same measures were 40 to 66.7% and 76.5 to 93.9%.
For `CN(C)C[C@H](O)C(=O)N[C@H](C#N)Cc1ccc(-c2ccc3c(c2)C2(CCN(C)C2)OC3=O)cc1F` (stereo partly drawn) [Compound 361] the same measures were 40 to 66.7% and not above 76.5%.
As for `CN(C)C[C@H](O)C(=O)N[C@H](C#N)Cc1ccc(-c2ccc3cnn(C4CCN(C)CC4)c3c2)cc1F` [Compound 362], the inhibition at 0.01 µM in test [1] was not below 66.7%. Besides, the inhibition at 0.005 µM in test [2] is not above 76.5%.
Turning to `CN(C)C[C@H](O)C(=O)N[C@H](C#N)Cc1ccc(-c2ccc3c(c2)C2(CCN(C4COC4)CC2)OC3)cc1F` [Compound 363], the inhibition at 0.01 µM in test [1] is 40 to 66.7%. The inhibition at 0.005 µM in test [2] is not above 76.5%.
For `CN(C)C[C@H](O)C(=O)N[C@H](C#N)Cc1ccc(-c2ccc3oc(=O)n(CCN4CCOCC4)c3c2)cc1F` [Compound 364] the same measures were 40 to 66.7% and not above 76.5%.
The like results for `CN(C)C[C@H](O)C(=O)N[C@H](C#N)Cc1ccc(-c2ccc(CN3CCN(C)CC3)cc2)cc1F` [Compound 365] were, in that order, not above 40% and not above 76.5%.
Take `CN(C)C[C@H](O)C(=O)N[C@H](C#N)Cc1ccc(-c2ccc3oc(=O)n(C)c3c2)cc1F` [Compound 366]: the inhibition at 0.01 µM in test [1] lay in the range of 40 to 66.7%. Moreover, in test [2], the inhibition at 0.005 µM fell in the range of 76.5 to 93.9%.
Take `COCCN(C)CCn1c(=O)oc2ccc(-c3ccc(C[C@@H](C#N)NC(=O)[C@@H](O)CN(C)C)c(F)c3)cc21` [Compound 368]: in test [1], the inhibition at 0.01 µM is not below 66.7%. In addition, the inhibition at 0.005 µM in test [2] was not above 76.5%.
The like results for `CN(C)C[C@H](O)C(=O)N[C@H](C#N)Cc1ccc(-c2ccc3cnn(C)c3c2)cc1` [Compound 370] were, in that order, not above 40% and not above 76.5%.
For `CN(C)C[C@H](O)C(=O)N[C@H](C#N)Cc1ccc(-c2ccc3nnn(C)c3c2)cc1` [Compound 371] the same measures were not above 40% and not above 76.5%.
For `CN(C)C[C@H](O)C(=O)N[C@H](C#N)Cc1ccc(-c2cnc3c(n2)CCCC3)cc1` [Compound 372] the same measures were not above 40% and not above 76.5%.
Consider `CN(C)C[C@H](O)C(=O)N[C@H](C#N)Cc1ccc(-c2ccc3cnn(C)c3c2)cc1F` [Compound 374], for which the inhibition at 0.01 µM in test [1] is not above 40%. Moreover, the inhibition at 0.005 µM in test [2] was not above 76.5%.
For `CN(C)C[C@H](O)C(=O)N[C@H](C#N)Cc1ccc(-c2cnc3c(n2)CCCC3)cc1F` [Compound 376] the same measures were not above 40% and not above 76.5%.
For `CN(C)C[C@H](O)C(=O)N[C@H](C#N)Cc1ccc(-c2ccc(S(=O)(=O)N3CCC3)cc2)cc1F` [Compound 377] the same measures were not above 40% and not above 76.5%.
The like results for `CN(C)C[C@H](O)C(=O)N[C@H](C#N)Cc1cc2c(cc1F)-c1ccc(F)cc1CO2` [Compound 378] were, in that order, not above 40% and not above 76.5%.
As for `CN(C)C[C@](C)(O)C(=O)NC(C#N)Cc1cc2c(cc1F)-c1cc(C3COC3)c(F)cc1CO2` (stereo partly drawn) [Compound 379], the inhibition at 0.01 µM in test [1] was not above 40%. In addition, the inhibition at 0.005 µM in test [2] was not above 76.5%.
For `CN(C)C[C@](C)(O)C(=O)N[C@H](C#N)Cc1cc2c(cc1F)-c1ccc(C#N)cc1CO2` [Compound 380] the same measures were not above 40% and not above 76.5%.
For `CN(C)C[C@](C)(O)C(=O)NC(C#N)Cc1cc2c(cc1F)-c1cc3c(cc1CO2)oc(=O)n3C` (stereo partly drawn) [Compound 381] the same measures were 40 to 66.7% and 76.5 to 93.9%.
For `CN(C)C[C@](C)(O)C(=O)NC(C#N)Cc1cc2c(cc1F)-c1cc(C#N)ccc1CO2` (stereo partly drawn) [Compound 382] the same measures were not above 40% and not above 76.5%.
In the case of `CN(C)C[C@](C)(O)C(=O)NC(C#N)Cc1cc2c(cc1F)-c1ccc3oc(=O)n(C)c3c1CO2` (stereo partly drawn) [Compound 383], the inhibition at 0.01 µM in test [1] is not above 40%. Moreover, in test [2], the inhibition at 0.005 µM is not above 76.5%.
For `CN(C)C[C@](C)(O)C(=O)N[C@H](C#N)Cc1ccc(-c2ccc3c(c2)C2(CC3)CCN(C)CC2)cc1` [Compound 384] the same measures were not below 66.7% and not above 76.5%.
The like results for `CN(C)C[C@](C)(O)C(=O)N[C@H](C#N)Cc1ccc(-c2ccc3c(c2)C2(CCCN(C)C2)C(=O)N3C)cc1` (stereo partly drawn) [Compound 385] were, in that order, not below 66.7% and not below 93.9%.
For `CN(C)CCn1c(=O)oc2ccc(-c3ccc(C[C@@H](C#N)NC(=O)[C@@](C)(O)CN(C)C)cc3)cc21` [Compound 386] the same measures were not below 66.7% and 76.5 to 93.9%.
With `CN(C)C[C@](C)(O)C(=O)N[C@H](C#N)Cc1ccc(-c2ccc3c(c2)C2(CN(C)C2)OC3=O)cc1` [Compound 388], the inhibition at 0.01 µM in test [1] was not below 66.7%. In addition, in test [2], the inhibition at 0.005 µM was not below 93.9%.
The like results for `CCN1C(=O)Cc2ccc(-c3ccc(C[C@@H](C#N)NC(=O)[C@@](C)(O)CN(C)C)cc3)cc21` [Compound 389] were, in that order, 40 to 66.7% and 76.5 to 93.9%.
With `CN(C)C[C@](C)(O)C(=O)N[C@H](C#N)Cc1ccc(-c2ccc3c(c2)C2(CCN(C)C2)OC3=O)cc1` (stereo partly drawn) [Compound 390], in test [1], the inhibition at 0.01 µM was not below 66.7%. In test [2], the inhibition at 0.005 µM was not above 76.5%.
For `CN(C)C[C@](C)(O)C(=O)N[C@H](C#N)Cc1ccc(-c2ccc3cnn(C4CCN(C)CC4)c3c2)cc1` [Compound 391] the same measures were not below 66.7% and not above 76.5%.
For the compound `CN(C)C[C@](C)(O)C(=O)N[C@H](C#N)Cc1ccc(-c2ccc3c(c2)C2(CCN(C4COC4)CC2)OC3)cc1` [Compound 392], the inhibition at 0.01 µM in test [1] was not below 66.7%. Moreover, in test [2], the inhibition at 0.005 µM is not above 76.5%.
The like results for `CN(C)C[C@](C)(O)C(=O)N[C@H](C#N)Cc1ccc(-c2ccc3oc(=O)n(CCN4CCOCC4)c3c2)cc1` [Compound 393] were, in that order, 40 to 66.7% and not above 76.5%.
For `CN(C)C[C@](C)(O)C(=O)N[C@H](C#N)Cc1ccc(-c2ccc(CN3CCN(C)CC3)cc2)cc1` [Compound 394] the same measures were not above 40% and 76.5 to 93.9%.
As to `CN(C)C[C@](C)(O)C(=O)N[C@H](C#N)Cc1ccc(-c2ccc3oc(=O)n(C)c3c2)cc1` [Compound 395], the inhibition at 0.01 µM in test [1] is not below 66.7%. Also, the inhibition at 0.005 µM in test [2] was in the range of 76.5 to 93.9%.
